According to paper PMC7901654, “Bioisosteric Discovery of NPA101.3, a Second-Generation RET/VEGFR2 Inhibitor Optimized for Single-Agent Polypharmacology” (Journal of Medicinal Chemistry, 2020):

Key:
[1] = system: RET and VEGFR2 in NIH3T3 RET/C634Y tumours; assay: In vivo target (RET and VEGFR2) inhibition, Western blot of established tumours; parameters: species or system mouse; settings: 3 mg/kg/day p.o. for 2 days, harvested 3 h after last dose
Experimental: (§1) In vivo target (RET and VEGFR2) inhibition was studied by treating animals grafted with NIH3T3 RET/C634Y cells at different doses (0.3, 1, or 3 mg/kg/day p.o.) of NPA101.3 for 2 days and then performing Western blot analysis on protein extracts. […] Then, to determine antitumorigenic activity and to better distinguish RET- and VEGFR2-mediated effects, we tested NPA101.3 in nude mice transplanted with NIH3T3 cells transformed by either RET/C634Y or HRAS/G12V. Before tumors appeared, animals were treated daily with NPA101.3 (1.0, 3.0, or 10.0 mg/kg/day) or left untreated. […] Still, VEGFR2 inhibition was detected also in RAS-driven tumors, an effect that might explain the, albeit reduced, effect of the drug on their growth (Figure S13). Importantly, as predicted, no trace of NPA101.3 demethyl metabolites was detected after 1 or 4 h from oral dosing in mice (Figure S14).
Supplementary Figure S11: In vivo target inhibition of NPA101.3 in nude mice implanted with cells transformed by RET/C634Y […] NIH3T3 RET/C634Y cells (2 x 105) were inoculated subcutaneously into the right and left dorsal portions of nude mice. When tumours reached approximately ~200 mm 3, mice (2 mice/dose) were treated by oral gavage with 3 doses (0, 24, 48 h) of the compound (0.3, 1 and 3 mg/Kg) or left untreated (NT); proteins were harvested 3 h after the last dose. […]

[2] = Toxicity, plasma biochemical analysis; type: in vivo, mouse; settings: 10 mg/kg/day oral, 7 days, mice
Experimental: as §1
Patch-Clamp assay. The patch-clamp assay has been outsourced to Aptuit (Verona, Italy). […]
After thawing, cells were maintained in culture using minimum essential medium supplemented with 10% foetal bovine serum, 1% non-essential amino acids, 1% sodium pyruvate, 2mM L-glutamine, 1% pen-strep, 15μg/ml blasticidin and 100 μg/ml hygromycin. hERG channel expression induction was obtained by adding 10 μg/ml tetracycline 48 h before the experiment. […] Current amplitude was measured and […]

[3] = system: RET-driven Ba/F3 cells (RET/C634R, RET/M918T, CCDC6-RET); assay: Cell growth curves, RET-driven Ba/F3 cells taken together; type: cell-based, murine; settings: Mus musculus, BaF3; range over RET-transfected Ba/F3 lines; read-out: IC50, RET-driven Ba/F3 cell proliferation
From the text: The murine pro-B cell line Ba/F3 requires IL-3 (interleukin 3) for proliferation and survival; this dependency is bypassed by active tyrosine kinases. Therefore, the Ba/F3 cell line is a standard cell culture model for determining the activity and drug-mediated inhibition of tyrosine kinases.[42] Accordingly, stable transfection of RET/C634R, RET/M918T, and CCDC6-RET oncoproteins promotes IL-3-independent growth (Figure 5).
Nthy-ory-3-1 (10000 per well), TPC-1 (10000 per well), MZ-CRC-1 (100000 per well), TT (200000 per well), Lc-2/ad (100000 per well), BCPAP (10000 per well), 8505-C (10000 per well), PC-9 (10000 per well), A549 (10000 per well), CALU-1 (10000 per well), NIH3T3 RET/C634Y (10000 per well), and NIH3T3 HRAS/G12V (10000 per well) were seeded in six-well tissue culture plates. Cells were kept in 2% (TPC-1), 5% (Nthy-ori-3-1), or 10% (BCPAP, 8505-C, CALU-1, A549, PC-9, TT, MZ-CRC-1, and Lc-2/ad) fetal calf serum or in 2% (NIH3T3 RET/C634Y and HRAS/G12V) calf serum. Ba/F3 cells (200000 per well in 2 mL) were seeded in six-well tissue culture plates and kept in 10% fetal calf serum. […] Cells were counted every day (Ba/F3), every 2 days (fibroblasts), or every 2–3 days (human cell lines). […] IC50 doses were calculated through a curve fitting analysis from last day of growth curves using the PRISM software program (Graphpad Software Inc.).

SMILES: CC(C)(C)c1cc(NC(=O)Cc2ccc(-n3cnc4cc(-c5ccc(S(C)(=O)=O)cc5)ccc43)cc2)no1 [NPA101.3]
- RET autophosphorylation and signaling and VEGFR2 phosphorylation in tumours [1]: strongly inhibited
- standard blood markers of organ damage [2]: no significant change
- IC50 [3]: 1.6 to 3.1 nM
